Measurements reported in US7109243B2 (IRM LLC, priority 2003, dated 2006).

Assays:
Cathepsin S = Cathepsin S (Homo sapiens, UniProt P25774); experiment: Cathepsin S inhibition assay (fluorogenic peptide substrate); type: biochemical; settings: Table II, compounds of Formula I; read-out: Ki Cat. S
Method in brief: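 Ki values come from nonlinear fitting of inhibited hydrolysis rates, taking free and total inhibitor concentrations as equal. Rates measured as rising fluorescence at 380/450 nm after reaction start with 50 μM final acetyl-HPVK-aminocarbamoylcoumarin.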

Cathepsin K = target: T1, Cathepsin K (Homo sapiens, UniProt P43235); experiment: Cathepsin K inhibition assay (fluorogenic peptide substrate); selectivity ratio vs cathepsin S; type: biochemical; settings: ratio of cathepsin K inhibition constant to cathepsin S inhibition constant; Table II
T1 sequence (P43235 115-329): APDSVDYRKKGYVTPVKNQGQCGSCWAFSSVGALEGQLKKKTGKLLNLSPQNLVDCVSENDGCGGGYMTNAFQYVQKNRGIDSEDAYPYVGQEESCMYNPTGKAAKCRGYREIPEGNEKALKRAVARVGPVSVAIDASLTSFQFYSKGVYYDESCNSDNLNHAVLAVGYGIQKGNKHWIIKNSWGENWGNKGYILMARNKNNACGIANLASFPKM
Method in brief: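 Inhibition constants for competitive inhibitors come from apparent values fitted to enzyme progress curves. Substrate, acetyl-Lys-His-Pro-Lys-aminocarbamoylcoumarin (40 μM final), starts the reaction; fluorescence rise read at 380 nm excitation, 450 nm emission. Selectivity ratio: other cathepsin constant over cathepsin S constant.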

Chain of Cathepsin S (P25774 115-331, species assumed): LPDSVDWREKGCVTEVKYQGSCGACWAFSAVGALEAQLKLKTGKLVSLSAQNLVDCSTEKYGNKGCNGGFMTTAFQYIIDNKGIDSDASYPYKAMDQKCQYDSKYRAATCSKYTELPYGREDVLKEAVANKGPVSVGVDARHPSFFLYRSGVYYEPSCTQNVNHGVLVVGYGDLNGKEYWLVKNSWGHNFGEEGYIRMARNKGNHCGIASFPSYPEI

Ki (Cathepsin S)	Selectivity for Cat. S over Cat. K (Cathepsin K)	Compound
< 100 nM	+++ (+++, >1000)	COc1ccc(NCCNC(=O)[C@H](Cc2cccc(C(F)(F)F)c2)NC(=O)c2cccc(C)c2)cc1 [Compound 252, (S)-N-[1-[2-(4-Methoxy-phenylamino)-ethylcarbamoyl]-2-(3-trifluoromethyl-phenyl)-ethyl]-3-methyl-benzamide]
< 1000 nM	++ (++, >100)	COc1ccc(NCCNC(=O)[C@H](COCc2ccccc2)NC(=O)c2cccc(C)c2)cc1 [Compound 254, (S)-N-{2-Benzyloxy-1-[2-(4-methoxy-phenylamino)-ethylcarbamoyl]-ethyl}-3-methyl-benzamide]
< 1000 nM	++ (++, >100)	COc1ccc(NCCNC(=O)[C@H](Cc2ccc(C(C)(C)C)cc2)NC(=O)c2cccc(C)c2)cc1 [Compound 255, (S)-N-{2-(4-tert-Butyl-phenyl)-1-[2-(4-methoxy-phenylamino)-ethylcarbamoyl]-ethyl}-3-methyl-benzamide]
< 100 nM	+++ (+++, >1000)	COc1ccc(NCCNC(=O)[C@H](Cc2c[nH]c3ccccc23)NC(=O)c2cccc(C)c2)cc1 [Compound 257, (S)-N-{2-(1H-Indol-3-yl)-1-[2-(4-methoxy-phenylamino)-ethylcarbamoyl]-ethyl}-3-methyl-benzamide]
< 100 nM	+++ (+++, >1000)	COc1ccc(NCCNC(=O)[C@H](Cc2cccc3ccccc23)NC(=O)c2cccc(C)c2)cc1 [Compound 258, (S)-N-{1-[2-(4-Methoxy-phenylamino)-ethylcarbamoyl]-2-naphthalen-1-yl-ethyl}-3-methyl-benzamide]
< 1000 nM	++ (++, >100)	COc1ccc(NCCNC(=O)[C@@H](NC(=O)c2cccc(C)c2)C(C)OCc2ccccc2)cc1 (stereo partly drawn) [Compound 259, (S)-N-{2-Benzyloxy-1-[2-(4-methoxy-phenylamino)-ethylcarbamoyl]-propyl}-3-methyl-benzamide]
< 100 nM	++ (++, >100)	O=C(Cc1cccc(F)c1)N[C@@H](CC1CCCCC1)C(=O)NCCNc1ccc(F)cc1 [Compound 260, 3-Cyclohexyl-2-(S)-[2-(3-fluoro-phenyl)-acetylamino]-N-[2-(4-fluoro-phenylamino)-ethyl]-propionamide]
< 100 nM	++ (++, >100)	O=C(N[C@@H](CC1CCCCC1)C(=O)NCCNc1ccc(F)cc1)c1ccco1 [Compound 264, Furan-2-carboxylic acid (S)-{2-cyclohexyl-1-[2-(4-fluoro-phenylamino)-ethylcarbamoyl]-ethyl}-amide]
< 1000 nM	++ (++, >100)	O=C(Cn1cnnn1)N[C@@H](CC1CCCCC1)C(=O)NCCNc1ccc(F)cc1 [Compound 265, 3-Cyclohexyl-N-[2-(4-fluoro-phenylamino)-ethyl]-2-(S)-(2-tetrazol-1-yl-acetylamino)-propionamide]
< 1000 nM	+ (+, >10)	COc1ccc(NCCNC(=O)C(NC(=O)c2cccc(C)c2)C(C)c2ccc([N+](=O)[O-])cc2)cc1 (stereo not drawn) [Compound 266, N-[1-[2-(4-Methoxy-phenylamino)-ethylcarbamoyl]-2-(4-nitro-phenyl)-propyl]-3-methyl-benzamide]
< 100 nM	+++ (+++, >1000)	COc1ccc(NCCNC(=O)[C@H](Cc2ccc(Oc3cccc(C)c3)cc2)NC(=O)c2cccc(C)c2)cc1 [Compound 267, (S)-N-[1-[2-(4-Methoxy-phenylamino)-ethylcarbamoyl]-2-(4-m-tolyloxy-phenyl)-ethyl]-3-methyl-benzamide]
< 1000 nM	++ (++, >100)	COc1ccc(NCCNC(=O)C(NC(=O)c2cccc(C)c2)C(C)c2ccccc2)cc1 (stereo not drawn) [Compound 268, threo-N-{1-[2-(4-Methoxy-phenylamino)-ethylcarbamoyl]-2-phenyl-propyl}-3-methyl-benzamide]
< 10000 nM	+ (+, >10)	COc1ccc(NCCNC(=O)C(NC(=O)c2cccc(C)c2)C(C)c2ccccc2)cc1 (stereo not drawn) [Compound 269, erythro-N-{1-[2-(4-Methoxy-phenylamino)-ethylcarbamoyl]-2-phenyl-propyl}-3-methyl-benzamide]
< 1000 nM	++ (++, >100)	COc1ccc(NCCNC(=O)[C@H](Cc2ccc(-c3cccc([N+](=O)[O-])c3)cc2)NC(=O)c2cccc(C)c2)cc1 [Compound 271, (S)-N-[1-[2-(4-Methoxy-phenylamino)-ethylcarbamoyl]-2-(3′-nitro-biphenyl-4-yl)-ethyl]-3-methyl-benzamide]
< 100 nM	++ (++, >100)	O=C(N[C@@H](CC1CCCCC1)C(=O)NCCNc1ccc(F)cc1)c1ccoc1 [Compound 272, Furan-3-carboxylic acid (S)-{2-cyclohexyl-1-[2-(4-fluoro-phenylamino)-ethylcarbamoyl]-ethyl}-amide]
< 1000 nM	++ (++, >100)	COc1ccc(NCCNC(=O)[C@H](Cc2ccc(-c3ccccc3[N+](=O)[O-])cc2)NC(=O)c2cccc(C)c2)cc1 [Compound 273, (S)-N-[1-[2-(4-Methoxy-phenylamino)-ethylcarbamoyl]-2-(2′-nitro-biphenyl-4-yl)-ethyl]-3-methyl-benzamide]
< 100 nM	+++ (+++, >1000)	COc1ccc(NCCNC(=O)[C@H](Cc2ccc(-c3cccnc3)cc2)NC(=O)c2cccc(C)c2)cc1 [Compound 274, (S)-N-[1-[2-(4-Methoxy-phenylamino)-ethylcarbamoyl]-2-(4-pyridin-3-yl-phenyl)-ethyl]-3-methyl-benzamide]
< 100 nM	+++ (+++, >1000)	COc1ccc(NCCNC(=O)[C@H](Cc2ccc(-c3ccsc3)cc2)NC(=O)c2cccc(C)c2)cc1 [Compound 275, (S)-N-[1-[2-(4-Methoxy-phenylamino)-ethylcarbamoyl]-2-(4-thiophen-3-yl-phenyl)-ethyl]-3-methyl-benzamide]
< 100 nM	+++ (+++, >1000)	COc1ccc(NCCNC(=O)[C@H](Cc2ccc(-c3ccc(C#N)cc3)cc2)NC(=O)c2cccc(C)c2)cc1 [Compound 276, (S)-N-{2-(4′-Cyano-biphenyl-4-yl)-1-[2-(4-methoxy-phenylamino)-ethylcarbamoyl]-ethyl}-3-methyl-benzamide]
< 100 nM	++ (++, >100)	COc1ccc(NCCNC(=O)[C@H](Cc2ccc(-c3ccncc3)cc2)NC(=O)c2cccc(C)c2)cc1 [Compound 277, (S)-N-[1-[2-(4-Methoxy-phenylamino)-ethylcarbamoyl]-2-(4-pyridin-4-yl-phenyl)-ethyl]-3-methyl-benzamide]
< 1000 nM	++ (++, >100)	COc1ccc(NCCNC(=O)[C@H](Cc2ccc(-c3ccc(Cl)cc3)cc2)NC(=O)c2cccc(C)c2)cc1 [Compound 278, (S)-N-{2-(4′-Chloro-biphenyl-4-yl)-1-[2-(4-methoxy-phenylamino)-ethylcarbamoyl]-ethyl}-3-methyl-benzamide]
< 1000 nM	++ (++, >100)	COc1ccc(NCCNC(=O)[C@H](Cc2ccc(-c3cccc(OC)c3OC)cc2)NC(=O)c2cccc(C)c2)cc1 [Compound 279, (S)-N-{2-(2′,3′-Dimethoxy-biphenyl-4-yl)-1-[2-(4-methoxy-phenylamino)-ethylcarbamoyl]-ethyl}-3-methyl-benzamide]
< 1000 nM	++ (++, >100)	COc1ccc(NCCNC(=O)[C@H](Cc2ccc(-c3cccc(N)c3)cc2)NC(=O)c2cccc(C)c2)cc1 [Compound 280, (S)-N-{2-(3′-Amino-biphenyl-4-yl)-1-[2-(4-methoxy-phenylamino)-ethylcarbamoyl]-ethyl}-3-methyl-benzamide]
< 1000 nM	++ (++, >100)	COc1ccc(NCCNC(=O)[C@H](Cc2ccc(-c3ccc(OC)c(OC)c3)cc2)NC(=O)c2cccc(C)c2)cc1 [Compound 281, (S)-N-{2-(3′,4′-Dimethoxy-biphenyl-4-yl)-1-[2-(4-methoxy-phenylamino)-ethylcarbamoyl]-ethyl}-3-methyl-benzamide]
< 1000 nM	++ (++, >100)	COc1ccc(NCCNC(=O)[C@H](Cc2ccc(-c3ccc(CO)cc3)cc2)NC(=O)c2cccc(C)c2)cc1 [Compound 282, (S)-N-{2-(4′-Hydroxymethyl-biphenyl-4-yl)-1-[2-(4-methoxy-phenylamino)-ethylcarbamoyl]-ethyl}-3-methyl-benzamide]
< 1000 nM	++ (++, >100)	COc1ccc(NCCNC(=O)[C@H](Cc2ccc(-c3cc(F)ccc3OC)cc2)NC(=O)c2cccc(C)c2)cc1 [Compound 283, (S)-N-{2-(5′-Fluoro-2′-methoxy-biphenyl-4-yl)-1-[2-(4-methoxy-phenylamino)-ethylcarbamoyl]-ethyl}-3-methyl-benzamide]
< 1000 nM	++ (++, >100)	COc1ccc(NCCNC(=O)[C@H](Cc2ccc(-c3cccc(CO)c3)cc2)NC(=O)c2cccc(C)c2)cc1 [Compound 284, (S)-N-{2-(3′-Hydroxymethyl-biphenyl-4-yl)-1-[2-(4-methoxy-phenylamino)-ethylcarbamoyl]-ethyl}-3-methyl-benzamide]
